Patent publication US20240093148A1, “METHOD FOR DIFFERENTIATING HUMAN INDUCED PLURIPOTENT STEM CELLS INTO OLIGODENDROCYTES, AND KIT AND USE” (ALLIFE MEDICINE (ZHUHAI) LIMITED, priority 2021, published 2024)

Tested on: human induced pluripotent stem cells
Experiment: Induction of oligodendrocytes from iPSC in OPC mature culture medium with or without puerarin (immunofluorescence, cell count)
Type: cell-based
Experimental: Cleaned with DPBS three times, 3 minutes per time, and fixed with 4% PFA at room temperature for 40 minutes. Cleaned with DPBS three times, 3 minutes per time. 0.5% TritonX-100, perforation for 15 minutes. 5% BSA+0.15% TritonX-100, blocked at room temperature for 1 hour. Preparation of PBST: DPBS+1% BSA+0.15% TritonX-100. The primary antibody was added, stay overnight at 4 degrees. Recycled the primary antibody solution and cleaned it with PB ST three times for 10 minutes each time. The secondary antibody was added with a ratio of 1:500, stayed overnight at 4 degrees, away from light. Cleaned with PB ST three times for 10 minutes each time. 5 μg/ml DAPI for 2-3 minutes, away from light. Cleaned with DPBS and added 90% glycerol.
OPC mature medium—containing puerarin: 95% DMEM/F-12 medium, 1% non-essential amino acid, 1% GlutaMAX-I, 0.1 mM 2-mercaptoethanol, 1% N2 supplement, 2% B27 supplement, 10 ng/mL PDGF-AA, 10 ng/mL IGF-1, 5 ng/mL HGF, 10 ng/mL NT3, 60 ng/mL T3, 100 ng/mL Biotin, 1 μM cAMP, 25 μM Puerarin, 25 μg/ml insulin. […]
On the 37th day of cultivation, the percentage of oligodendrocytes in all cells was quantitatively counted, as shown in FIG. 3.

O=c1c(-c2ccc(O)cc2)coc2c([C@@H]3O[C@H](CO)[C@@H](O)[C@H](O)[C@H]3O)c(O)ccc12 [puerarin, Puerarin]
percentage of oligodendrocytes in all cells (day 37 of cultivation, 25 μM puerarin in OPC mature culture medium, control medium without puerarin about 21%): about 36%
increase of the number of oligodendrocytes (later stage of induction of iPSC to oligodendrocytes): 30%
